In patent publication US9024018B2, “3-substituted-8-substituted-3H-imidazo[5,1-d][1,2,3,5]tetrazin-4-one compounds and their use” (Pharminox Limited, priority 2009, dated 2015) one finds GI50 data, which are given here for 27 compounds.

Format in all cases: cell-based
Test [1] has as its system SNB19V. As to the kind of experiment: MTT assay for 7-day toxicity, SNB19V glioma cells (vector control, MGMT-). Particulars: Glioma cell, 168 h, 7 day MTT assay, glioma line SNB19V. As for the experimental part: (§1) The cell culture techniques were carried out in a Class II microbiological safety cabinet which was swabbed with 70% IMS in distilled water before each use. Glioma cells were routinely cultured in Costar tissue culture flasks in RPMI 1640 liquid medium (containing 0.3 g/L L-glutamine and 2 g/L sodium bicarbonate) supplemented with 10% heat inactivated FBS (55-59° C.) for 1 hour to denature complement proteins which would otherwise evoke a cellular immune response resulting in cell lysis, 1% non-essential amino acids, 50 μg/mL gentamicin and 400 μg/mL G418 (vector selection reagent). Colorectal and melanoma cells were maintained in RPMI 1640 supplemented with 10% FBS. MRC-5 cells were cultured in EMEM+10% FBS, 1% pen/strep, 1% non-essential amino acids, 1% HEPES (1M) and 1% sodium bicarbonate.
(§2) Cells were grown at 37° C. in a humidified incubator in an atmosphere comprising 95% air/5% CO2. Cells were sub-cultured when growth exceeded approximately 80% confluence, normally twice weekly. The medium was aspirated from the flask and approximately 0.8 mL trypsin-EDTA 1× solution added. The cells were re-incubated at 37° C. until they had visibly detached from the flask. The cells were re-suspended in 5 mL medium and 0.5-1 mL was transferred to a new flask (25 cm^2) with 7 mL culture medium. The cells were further incubated at 37° C. To minimize phenotypic drift, cells were disposed of once they had been subcultured 30 times. New batches of cells were thawed rapidly in 37° C. water bath once taken from liquid nitrogen storage and re-suspended in 10 mL of culture medium in a 25 cm^2 flask. Cells were passaged twice to allow normal growth to resume prior to use in experiments.
(§3) Most test compounds, including temozolomide, were prepared as 100 mM stock solutions in DMSO and stored at −20° C. for not more than 6 months.
(§4) MTT Assay for 7-Day Toxicity Assay
(§5) This assay was first described in Mosmann, T., 1983, “Rapid colorimetric assay for cellular growth and survival: Application to proliferation and cytotoxicity assays”, Journal of Immunological Methods, Vol. 65, Nos. 1-2, pp. 55-63.
(§6) Glioma cell lines, SNB19 and U373, both stably transfected with MGMT (i.e., SNB19M and U373M) or their respective vector controls (i.e., SNB19V and U373V); colorectal carcinoma cell lines, HCT116, HT29, and DLD1; melanoma cell line, SKMEL-28; breast cell line, MCF-7; and normal human fetal lung fibroblast cell line, MRC-5; were used at 60-80% confluence, during the logarithmic phase of growth.
(§7) Following harvesting with trypsin/EDTA, cells in suspension were gently syringed through a 23 gauge needle to obtain a near-single cell suspension. Cells were then seeded into 96-well plates at the desired density in 180 μL culture medium if only one test compound was to be added, or in 160 μL if two test compounds were to be added in combination. Cells were allowed to attach overnight by incubation at 37° C. in 95% air/5% CO2. For the 7 day assay, the cell seeding densities for the different cell lines were as follows: SNB19V, SNB19M: 650 cells/well; U373V, U373M: 650 cells/well; SNB19VR, U373VR: 650 cells/well; HCT116, DLD-1, SKMEL-28, MRC-5, MCF-7: 400 cells/well.
(§8) The two peripheral lanes of each plate were used as blank wells (cell free) and filled with 200 μL of medium in order to minimise medium evaporation from the plate. A separate time zero (T0) plate was set up alongside other plates. Serial dilutions in tissue culture medium of a 100 mM stock of test compound were prepared immediately before each assay to ten times the final concentrations required. 20 μL was added to each well (200 μL total media per well) to achieve final concentrations of 0.5 μM, 1 μM, 5 μM, 10 μM, 50 μM, 100 μM, 500 μM, and 1000 μM. A minimum of four wells received the same test compound concentration. To control wells, including those in the T0 plate, 20 μL of medium was added. […]
Background: Tetrazolium dyes change colour on reduction, which living cells bring about.

In test [2] the test system is SNB19M. The experiment in a line: MTT assay for 7-day toxicity, SNB19M glioma cells (stably transfected with MGMT, MGMT+). To be noted: Glioma cell, 168 h, 7 day MTT assay, glioma line SNB19M. Here is the method:
as §1, §2, §3, §4, §5, §6, §7, §8

The test system of test [3] is U373V. As to the kind of experiment: MTT assay for 7-day toxicity, U373V glioma cells (vector control, MGMT-). To be noted: Glioma cell, 168 h, 7 day MTT assay, glioma line U373V. As for the experimental part:
as §1, §2, §3, §4, §5, §6, §7, §8

In test [4] the test system is U373M. The experiment in a line: MTT assay for 7-day toxicity, U373M glioma cells (stably transfected with MGMT, MGMT+). Particulars: 7 day MTT assay, glioma line U373M. As for the experimental part:
as §1, §2, §3, §4, §5, §6, §7, §8

The GI50 is the concentration that inhibits growth by half.

For the compound `Cn1nnc2c(C(=O)NO)ncn2c1=O` [RR-001, N-Hydroxy-3-methyl-4-oxo-3,4-dihydroimidazo[5,1-d][1,2,3,5]tetrazine-8-carboxamide], the GI50 in test [1] was determined as 41 µM; in test [2] it was 87.1 µM.

Turning to `Cn1nnc2c(-c3nc(-c4nccs4)cs3)ncn2c1=O` [WW-010, 8-(2,4′-Bithiazol-2′-yl)-3-methylimidazo[5,1-d][1,2,3,5]tetrazin-4(3H)-one], the GI50 was less than 45 µM in test [1] and less than 70 µM in test [2].

`Cn1nnc2c(-c3nc(-c4cccs4)cs3)ncn2c1=O` [WW-011, 3-Methyl-8-(4-(thiophen-2-yl)thiazol-2-yl)imidazo[5,1-d][1,2,3,5]tetrazin-4(3H)-one]: the GI50 in test [1] is less than 45 µM; in test [2], less than 70 µM; in test [3], less than 75 µM.

For `Cn1nnc2c(-c3nc(-c4ccncc4)cs3)ncn2c1=O` [WW-013], the GI50 in test [2] is less than 70 µM; in test [4] (Glioma cell, 168 h) it was less than 60 µM; in test [3], less than 75 µM.

For `COCn1nnc2c(-c3nc(C(C)(C)C)cs3)ncn2c1=O` [WW-014, 8-(4-tert-Butylthiazol-2-yl)-3-(methoxymethyl)imidazo[5,1-d][1,2,3,5]tetrazin-4(3H)-one], the GI50 in test [2] was less than 70 µM; in test [4] (Glioma cell, 168 h), less than 60 µM; in test [3], less than 75 µM.

Take `COCn1nnc2c(-c3nc(-c4nccs4)cs3)ncn2c1=O` [WW-015, 8-(2,4′-Bithiazol-2′-yl)-3-(methoxymethyl)imidazo[5,1-d][1,2,3,5]tetrazin-4(3H)-one]: the GI50 is less than 70 µM in test [2]; less than 60 µM in test [4] (Glioma cell, 168 h); less than 75 µM in test [3].

In the case of `COCn1nnc2c(-c3nc(-c4ccccc4)cs3)ncn2c1=O` [WW-016, 3-(Methoxymethyl)-8-(4-phenylthiazol-2-yl)imidazo[5,1-d][1,2,3,5]tetrazin-4(3H)-one], the GI50 in test [2] is less than 70 µM; in test [4] (Glioma cell, 168 h), less than 60 µM; in test [3], less than 75 µM.

As to `COCn1nnc2c(-c3nc(-c4ccsc4)cs3)ncn2c1=O` [WW-017], the GI50 is less than 45 µM in test [1] and less than 70 µM in test [2].

On to `COCn1nnc2c(-c3nc(-c4cccs4)cs3)ncn2c1=O` [WW-018, 3-(Methoxymethyl)-8-(4-(thiophen-2-yl)thiazol-2-yl)imidazo[5,1-d][1,2,3, 5]tetrazin-4(3H)-one], for which the GI50 in test [1] is less than 45 µM; in test [2], less than 70 µM.

Regarding `COCn1nnc2c(-c3nc(-c4ccncc4)cs3)ncn2c1=O` [WW-019, 3-(Methoxymethyl)-8-(4-(pyridin-4-yl)thiazol-2-yl)imidazo[5,1-d][1,2,3,5]tetrazin-4(3H)-one], the results for the GI50 in test [1] and in test [2] were less than 45 µM and less than 70 µM, respectively.

Regarding `C#CCn1nnc2c(-c3nc(C(C)(C)C)cs3)ncn2c1=O` [WW-020, 8-(4-tert-Butylthiazol-2-yl)-3-(prop-2-ynyl)imidazo[5,1-d][1,2,3,5]tetrazin-4(3H)-one], the GI50 in test [2] is less than 70 µM.

`Cn1nnc2c(-c3nc(-c4ccc(Br)cc4)cs3)ncn2c1=O` [WW-022, 8-(4-(4-Bromophenyl)thiazol-2-yl)-3-methylimidazo[5,1-d][1,2,3,5]tetrazin-4(3H)-one]: the results for the 50% growth inhibitory concentration (GI50) in test [1] and in test [2] were less than 45 µM and less than 70 µM, respectively.

With `COCn1nnc2c(-c3nc(-c4ccc(S(C)(=O)=O)cc4)cs3)ncn2c1=O` [WW-027, 3-(Methoxymethyl)-8-(4-(4-(methylsulfonyl)phenyl)thiazol-2-yl)imidazo[5,1-d][1,2,3,5]tetrazin-4(3H)-one], the GI50 in test [4] is 33.1 µM; in test [4] (Glioma cell, 168 h), less than 60 µM.

Consider `Cn1nnc2c(-c3nnc(-c4ccccc4)o3)ncn2c1=O` [WW-041, 3-Methyl-8-(5-phenyl-1,3,4-oxadiazol-2-yl)imidazo[5,1-d][1,2,3,5]tetrazin-4(3H)-one], for which the results for the GI50 in test [1] and in test [3] were less than 45 µM and less than 75 µM, respectively.

As to `C[S+]([O-])Cn1nnc2c(-c3nnc(-c4ccccc4)o3)ncn2c1=O` (centres unmarked) [WW-043, 3-(Methylsulfinylmethyl)-8-(5-phenyl-1,3,4-oxadiazol-2-yl)imidazo[5,1-d][1,2,3,5]tetrazin-4(3H)-one], the figures for the GI50 in test [1] and in test [2] were less than 45 µM and less than 70 µM, respectively.

With `Cn1nnc2c(-c3nnc(Nc4ccccc4)o3)ncn2c1=O` [WW-044, 3-Methyl-8-(5-(phenylamino)-1,3,4-oxadiazol-2-yl)imidazo[5,1-d][1,2,3,5]tetrazin-4(3H)-one], the GI50 in test [3] was less than 75 µM.

As to `CNc1nnc(-c2ncn3c(=O)n(C)nnc23)o1` [WW-045, 3-Methyl-8-(5-(methylamino)-1,3,4-oxadiazol-2-yl)imidazo[5,1-d][1,2,3,5]tetrazin-4(3H)-one], the GI50 is less than 45 µM in test [1] and less than 75 µM in test [3].

Consider `C#CCn1nnc2c(-c3nc(-c4cccs4)cn3C)ncn2c1=O` [WW-053, 8-(1-Methyl-4-(thiophen-2-yl)-1H-imidazol-2-yl)-3-(prop-2-ynyl)imidazo[5,1-d][1,2,3,5]tetrazin-4(3H)-one], for which the results for the GI50 in test [1] and in test [2] were less than 45 µM and less than 70 µM, respectively.

Take `Cn1nnc2c(-c3nc4ccccc4o3)ncn2c1=O` [WW-054, 8-(Benzo[d]oxazol-2-yl)-3-methylimidazo[5,1-d][1,2,3,5]tetrazin-4(3H)-one]: the GI50 in test [1] is less than 45 µM; in test [3], less than 75 µM.

In the case of `C[S+]([O-])Cn1nnc2c(-c3nc4ccccc4o3)ncn2c1=O` (centres unmarked) [WW-056, 8-(Benzo[d]oxazol-2-yl)-3-(methylsulfinylmethyl)imidazo[5,1-d][1,2,3,5]tetrazin-4(3H)-one], the GI50 in test [1] is less than 45 µM; in test [2], less than 70 µM.

`COCn1nnc2c(-c3nc4ccccc4o3)ncn2c1=O` [WW-057]: the GI50 in test [2] was less than 70 µM.

`C#CCn1nnc2c(-c3nc4ccccc4s3)ncn2c1=O` [WW-059, 8-(Benzo[d]thiazol-2-yl)-3-(prop-2-ynyl)imidazo[5,1-d][1,2,3, 5]tetrazin-4(3H)-one]: the GI50 in test [1] is less than 45 µM; in test [2], less than 70 µM.

As to `COCn1nnc2c(-c3nc4ccccc4s3)ncn2c1=O` [WW-060, 8-(Benzo[d]thiazol-2-yl)-3-(methoxymethyl)imidazo[5,1-d][1,2,3,5]tetrazin-4(3H)-one], the GI50 in test [1] was less than 45 µM; in test [2], less than 70 µM.

`C[S+]([O-])Cn1nnc2c(-c3nc4ccccc4s3)ncn2c1=O` (centres unmarked) [WW-061, 8-(Benzo[d]thiazol-2-yl)-3-(methylsulfinylmethyl)imidazo[5,1-d][1,2,3,5]tetrazin-4(3H)-one]: the GI50 was less than 45 µM in test [1] and less than 70 µM in test [2].

For `COCn1nnc2c(-c3nc4ccccc4[nH]3)ncn2c1=O` [WW-064, 8-(1H-Benzo[d]imidazol-2-yl)-3-(methoxymethyl)imidazo[5,1-d][1,2,3,5]tetrazin-4(3H)-one], the GI50 in test [1] was less than 45 µM; in test [2] it was less than 70 µM.

Regarding `C#CCn1nnc2c(-c3nc4ccccc4n3C)ncn2c1=O` [WW-065, 8-(1-Methyl-1H-benzo[d]imidazol-2-yl)-3-(prop-2-ynyl)imidazo[5,1-d][1,2,3,5]tetrazin-4(3H)-one], the figures for the GI50 in test [1] and in test [2] were less than 45 µM and less than 70 µM, respectively.

For the compound `Cn1nnc2c(-c3nc4ccccc4n3C)ncn2c1=O` [WW-066, 3-Methyl-8-(1-methyl-1H-benzo[d]imidazol-2-yl)imidazo[5,1-d][1,2,3,5]tetrazin-4(3H)-one], the GI50 was less than 45 µM in test [1] and less than 70 µM in test [2].
